Laboratory results: patent publication US7138408B2, “HIV integrase inhibitors, pharmaceutical compositions and methods for their use” (priority 2003, dated 2006)

Biological target: T1, HIV-1 integrase (SF1) (Human immunodeficiency virus type 1 group M subtype B, UniProt P04585, C1203S/C1427S/F1286D/F1332K/W1278D)
T1 construct: 6-histidine tag with thrombin cleavage site (N, cleaved yes); made in house; host or cells: E. coli BL21 (DE3)
Test: Integrase strand-transfer scintillation proximity assay
Assay type: biochemical
From the text: Oligonucleotides: Oligonucleotide #1-5′-(biotin)[…]-3′ (SEQ ID NO: 1) and oligonucleotide #2-5′-[…]-3′ (SEQ ID NO: 2), were synthesized by TriLink BioTechnologies, Inc. (San Diego, Calif.). The annealed product represents preprocessed viral ds-DNA derived from the LTR U5 sequence of the viral genome. A ds-DNA control to test for non-specific interactions was made using a 3′ di-deoxy derivative of oligonucleotide #1 annealed to oligonucleotide #2. The CA overhang at the 5′ end of the non-biotinylated strand of the ds-DNA was created artificially by using a complimentary DNA oligonucleotide shortened by 2 base pairs. This configuration eliminates the requisite 3′ processing step of the integrase enzyme prior to the strand-transfer mechanism.
Host ds-DNA was prepared as an unlabeled and [^3H]-thymidine labeled product from annealed oligonucleotide #3-5-[…]-3′ (SEQ ID NO: 3), and oligonucleotide #4-5′-[…]-3′ (SEQ ID NO: 4), both synthesized by TriLink BioTechnologies, Inc. (San Diego, Calif.). The annealed product had overhanging 3′ ends of poly(dA). Host DNA was custom radiolabeled by PerkinElmer Life Sciences Inc. (Boston, Mass.) using an enzymatic method with a 12/1 ratio of [methyl-^3H]dTTP/cold ds-DNA to yield 5′-blunt end ds-DNA with a specific activity of>900 Ci/mmol. The radiolabeled product was purified using a NENSORB cartridge and stored in stabilized aqueous solution (PerkinElmer). The final radiolabeled product had six [^3H]-thymidine nucleotides at both 5′ ends of the host ds-DNA.
Reagents: Streptavidin-coated polyvinyltoluene (PVT) SPA beads were purchased from Amersham Pharmacia (Piscataway, N.J.). Cesium chloride was purchased from Shelton Scientific, Inc. (Shelton, Conn.). White polystyrene, flat bottom, non-binding surface 384-well plates were purchased from Corning. All other buffer components were purchased from Sigma (St. Louis, Mo.) unless otherwise indicated.
Enzyme Construction: Full-length HIV-1 integrase (SF1) sequence (amino acids 1–288) (SEQ ID NO: 5) was constructed in a pET 15b vector (Novagen, Madison, Wis.) with mutations outlined by Chen et al. (Chen, C-H. J. et al., PNAS 97: 8233–8238 (2000)) that facilitate solubility of the enzyme and decrease oxidation. The vector contained a T7 promoter, a 6-histidine tag at the amino terminus, and a thrombin cleavage site. Mutations C56S, W131D, F139D, F185K, and C280S were introduced using a QuickChange kit (Stratagene, San Diego, Calif.). The construct was confirmed through DNA sequencing.
Enzyme Purification: The penta-mutant was expressed in E. coli BL21 (DE3) cells and induced with 1 mM isopropyl-1 thio-β-D-galactopyranoside (IPTG) when cells reached an optical density between 0.8–1.0 at 600 nm. Cells were lysed in 20 mM HEPES (pH 7.5), 1.5 M NaCl, 5 mM imidazole, and 2 mM 2-mercaptoethanol. The enzyme was purified following standard methods for histidine tagged proteins (Jenkins, T. M. et al., Journal of Biological Chemistry 271: 7712–7718 (1996)). Specifically, cell lysate was passed over a Ni-Nta column (Qiagen, Chatsworth, Calif.) with the 6-His tagged integrase protein eluted by adding 250 mM imidazole. A G-25 Sepharose® column (Amersham Pharmacia, Piscataway, N.J.) was used to exchange the buffer prior to thrombin cleavage of the integrase protein and subsequent removal of thrombin using a benzamidine-Sepharose® 6B column. The cleaved 6-His tag was separated from the integrase using a second Ni-Nta column. The integrase was further purified with a heparin-Sepharose® column and a gradient of NaCl (0.4 to 1 M) in 20 mM HEPES (pH 7.5), 400 mM NaCl, and 1 mM DTT buffer. The purified protein was dialyzed against 20 mM HEPES (pH 7.5), 800 mM NaCl, and 1 mM DTT and concentrated by stirred cell ultrafiltration (Millipore, Bedford, Mass.) or Ultra-free spin concentrators (Millipore, Bedford, Mass.) when required. […]

Q: `O=C(NO)c1cc2c3ccccc3n(Cc3ccc(F)cc3F)c2cn1` [Compound 6, 9-(2,4-Difluorobenzyl)-N-hydroxy-9H-β-carboline-3-carboxamide] was tested. Which IC50 did it give?
A: 463 nM

Q: With `O=C(NO)c1cc2c3ccccc3n(Cc3c(F)ccc(Cl)c3F)c2cn1` [Compound 7, 9-(3-Chloro-2,6-difluorobenzyl)-N-hydroxy-9H-β-carboline-3-carboxamide] as the compound, how does the IC50 read?
A: 1390 nM

Q: With `O=C(NO)c1cc2c3ccccc3n(Cc3cccc(Cl)c3F)c2cn1` [Compound 3, 9-(3-Chloro-2-fluorobenzyl)-N-hydroxy-9H-β-carboline-3-carboxamide] as the compound, how does the IC50 read?
A: 400 nM

Q: `O=C(NO)c1cc2c3ccccc3n(Cc3ccc(Cl)s3)c2cn1` [Compound 2, 9-[(5-Chlorothien-2-yl)methyl]-N-hydroxy-9H-β-carboline-3-carboxamide] was tested. Which IC50 did it give?
A: 494 nM

Q: Which IC50 does the source give for `CN(O)C(=O)c1cc2c3ccccc3n(Cc3ccc(F)cc3)c2cn1` [Compound 13, 9-(4-Fluorobenzyl)-N-hydroxy-N-methyl-9H-β-carboline-3-carboxamide] here?
A: 699 nM

Q: How did the IC50 turn out when `Nc1ccc2c(c1)c1cc(C(=O)NO)ncc1n2Cc1cccc(Cl)c1` [Compound 8, 6-Amino-9-(3-chlorobenzyl)-N-hydroxy-9H-β-carboline-3-carboxamide] was run?
A: 713 nM

Q: With `O=C(NO)c1cc2c3ccccc3n(Cc3ccc(F)cc3)c2cn1` [Compound 1, 9-(4-Fluorobenzyl)-N-hydroxy-9H-β-carboline-3-carboxamide] as the compound, how does the IC50 read?
A: 234 nM

Q: How did the IC50 turn out when `O=C(NO)c1cc2c3ccccc3n(Cc3ccccc3)c2cn1` [Compound 4, 9-Benzyl-N-hydroxy-9H-β-carboline-3-carboxamide] was run?
A: 281 nM
